From patent publication US6365769B1, “Perfluoroalkyl halides and derivatives” (3M Innovative Properties Company, priority 1991, dated 2002)

How the values were obtained:
Format in all cases: physicochemical
[1] = Surface tension of the aqueous solution, Du Nouy tensiometer; conditions: for SURFACE TENSION (dynes/cm) 100 ppm: 100 ppm in water; for SURFACE TENSION (dynes/cm) 500 ppm: 500 ppm in water
Method: (§1) The materials of the invention were diluted in water to 0.05% (500 ppm) and/or 0.01% (100 ppm), and the surface tension of the aqueous solution was measured using a Du Nouy tensiometer. Foam height was measured as volume in a graduated cylinder. Half-life time (t ½) is the time for half the liquid present in the foam to drain from the foam. The foam was generated by a wire wisk in a Hobart mixer. Thus, 200 mL of surfactant solution to be tested is placed in a bowl of Hobart Model N-50 mixer equipped with a wire wisk stirrer and stirred for 3 minutes at medium speed (setting 2=300 rpm). The foam produced was immediately transferred to a 4000 mL graduated cylinder for measuring foam height and half-life time.

[2] = Foam height, foam generated in Hobart mixer; conditions: 500 ppm in water; 200 mL solution stirred 3 minutes
Method: as §1

[3] = Foam half-life time (drainage of half the liquid); conditions: 500 ppm in water
Method: as §1

In the case of `O=C(CC(C(=O)OCCC(F)(F)C(F)(F)C(F)(F)C(F)(F)F)S(=O)(=O)[O-])OCCC(F)(F)C(F)(F)C(F)(F)C(F)(F)F.[Na+]` (centres unmarked) [C14, reference compound], the “SURFACE TENSION (dynes/cm) 100 ppm” value [1] is reported as 30.5 dynes/cm and the “SURFACE TENSION (dynes/cm) 500 ppm” value [1] is reported as 21.7 dynes/cm.

In the case of `N.O=S(=O)(O)OCCC(F)(F)C(F)(F)C(F)(F)C(F)(F)C(F)(F)C(F)(F)C(F)(F)C(F)(F)F` [Example 43, C8F17CH2CH2OSO3NH4], the “FOAM HEIGHT (VOLUME)” value [2] is reported as 400, the “HALF-LIFE TIME (SEC) / t ½” value [3] is reported as under 30 s and the “SURFACE TENSION (dyne/cm) 500 ppm” value ([1]; 500 ppm as printed (second surface tension column of Tables 12, 14)) is reported as 22.8 dyne/cm. For the same molecule, the “SURFACE TENSION (dyne/cm) 500 ppm” value ([1]; 500 ppm in water (first surface tension column of Tables 12, 14)) was 19.5 dyne/cm.

With `O=C(CC(C(=O)OCCC(F)(F)C(F)(F)C(F)(F)C(F)(F)F)S(=O)(=O)[O-])OCCC(F)(F)C(F)(F)C(F)(F)C(F)(F)F.[Na+]` (centres unmarked) [Example 45, C4F9CH2CH2OC(O)CH2CH(SO3Na)C(O)OCH2CH2C4F9] the “SURFACE TENSION (dynes/cm) 100 ppm” value [1] was 24.2 dynes/cm and the “SURFACE TENSION (dynes/cm) 500 ppm” value [1] was 17.7 dynes/cm.

With `CC(C)(CNC(=O)CCSCCC(F)(F)C(F)(F)C(F)(F)C(F)(F)C(F)(F)C(F)(F)C(F)(F)C(F)(F)F)CS(=O)(=O)[O-].[K+]` [Example 47, C8F17CH2CH2SCH2CH2C(O)NHCH2C(CH3)2CH2SO3K] the “SURFACE TENSION (dynes/cm) 100 ppm” value [1] was 24.0 dynes/cm and the “SURFACE TENSION (dynes/cm) 500 ppm” value [1] was 19.0 dynes/cm.

For `CC(C)(CNC(=O)CCNCCNCCC(=O)OCCC(F)(F)C(F)(F)C(F)(F)C(F)(F)C(F)(F)C(F)(F)C(F)(F)C(F)(F)F)CS(=O)(=O)[O-].[K+]` [Example 55, C8F17CH2CH2OC(O)CH2CH2NHCH2CH2NHCH2CH2C(O)NHCH2C(CH3)2CH2SO3K], the “SURFACE TENSION (dynes/cm) 100 ppm” value [1] was 26.2 dynes/cm and the “SURFACE TENSION (dynes/cm) 500 ppm” value [1] was 20.1 dynes/cm.

In the case of `CCS(=O)(=O)[O-].CC[N+](C)(C)CCOC(=O)CCNCCNCCC(=O)OCCC(F)(F)C(F)(F)C(F)(F)C(F)(F)C(F)(F)C(F)(F)C(F)(F)C(F)(F)F` [Example 61, [C8F17CH2CH2OC(O)CH2CH2NHCH2CH2NHCH2CH2C(O)OCH2CH2N^+(CH3)2CH2CH3] [CH3CH2SO^−3]], the “SURFACE TENSION (dynes/cm) 100 ppm” value [1] is reported as 21.3 dynes/cm and the “SURFACE TENSION (dynes/cm) 500 ppm” value [1] is reported as 19.9 dynes/cm.

For `CCCCCCCCCC(O)C/[N+](C)=C/CCCS(=O)(=O)[O-]` (centres unmarked) [Example 71], the “SURFACE TENSION (dynes/cm) 500 ppm” value [1] was 17.5 dynes/cm.

For C8F17C2H4O(C2H4O)nH [Example 69], the “SURFACE TENSION (dynes/cm) 500 ppm” value [1] was 21.7 dynes/cm.

For “C8F17CH2CH2S(CH2CH2O)12(CH2CH(CH3)O)3H [Example 70]”, the “SURFACE TENSION (dynes/cm) 500 ppm” value [1] was 23.1 dynes/cm.
